# Laboratory results as given in patent US6903104B2, “Indol-3-YL-2-oxoacetamide compounds and methods of use thereof” (National Health Research Institutes, priority 2001, dated 2005).
# What was measured:
# [1] = test system: colorectal DLD1 cancer cells; experiment: In vitro cytotoxicity MTS assay, colorectal DLD1; assay type: cell-based, human; conditions: 72 hours
# Method: (§1) A panel of human cancer cells, gastric NUGC3 and HR, nasopharyngeal HONE1, hepatocellular HEP G2 and HA-22T, colorectal DLD1, lung A549, prostate PC3, breast MCF7 and its adriamycin-resistant MCF7/ADR subline, uterus MES-SA and its adriamycin-resistant MES-SA/Dx5 subline, is purchased from Food Industry Research and Development Institute, Hsinchu, Taiwan R.O.C. or American Type Culture Collection, Manassas, Va. U.S.A., are used in in vitro cytotoxicity assays. The human cells are seeded at a cell density of 3000 or 4500 cells/100 μl/well in 96-well flat-bottom plates and incubated for 24 hours at 37° C. in a 5% CO2 incubator. The testing compounds are dissolved in dimethyl sulfoxide (DMSO) and further diluted into the culture medium for treatments of human cancer cells in vitro. The drug-containing media has a final DMSO concentration of ≦0.3%. The compounds of this invention are prepared in culture media for testing at a range of concentrations from 10, 1, 0.1, 0.01 to 0.001 μM. Each compound solution is (200 μl/well in duplicate) in the cell plates and is treated for 72 hours at 37° C., 5% CO2 in an incubator. Actinomycin D at 5 μM and 0.3% DMSO are used as the positive and vehicle controls, respectively. A colorimetric assay using 3-(4,5-dimethylthiazol-2-yl)-5-(3-carboxymethoxyphenyl)-2-(4-sulfophenyl)-2H-tetrazolium (MTS) and phenazine methosulfate (PMS) is used to determine the potency of the compounds. This assay measures cell viability based on the cellular activity in conversion of a tetrazolium salt into a colored soluble formazan product. The optical density (OD) values are measured at 490 nm with a 1420 multilabel counter VICTOR® from Wallac, Turku, Finland. All of the measured values are subtracted with that of the blank control wells without cells before further calculations. The efficacy data are expressed as a percentage normalized to the vehicle controls as calculated in the following formulae. Inhibitory potency (% of vehicle control)=[(OD490compound−OD490blank)/(OD490vehicle−OD490blank)]×100%. The concentration (IC50) of a test compound that inhibits 50% of the cellular activity is determined.
# [2] = test system: hepatocellular HEP G2 cancer cells; experiment: In vitro cytotoxicity MTS assay, hepatocellular HEP G2; assay type: cell-based, human; conditions: 72 hours
# Method: as §1
# [3] = test system: prostate PC3 cancer cells; experiment: In vitro cytotoxicity MTS assay, prostate PC3; assay type: cell-based, human; conditions: 72 hours
# Method: as §1
# [4] = test system: adriamycin-resistant MES-SA/Dx5 subline; experiment: In vitro cytotoxicity MTS assay, adriamycin-resistant MES-SA/Dx5; assay type: cell-based, human; conditions: 72 hours
# Method: as §1
# [5] = test system: murine leukemic P388 cells; experiment: In vivo anticancer activity, murine leukemic P388 model; set-up: species or system DBA/2J mice; conditions: P388-inoculated mice; for increase of life span: P.O., daily, 4×; for activity in the increase of life span (dose-response): oral
# Method: The in vivo anticancer activities of the compounds are evaluated by the following murine leukemic P388 model. Inbred female DBA/2J mice of 4-5 week-old were purchased from the Charles River Laboratories Inc., Wilmington, Mass., USA and the National Laboratory Animals Breeding and Research Center, Taipei, Taiwan, ROC. Murine leukemic P388 cells are purchased from the Japanese Collection of Research Bioresources, Japan. P388 cells are cultured and propagated in RPMI1640 medium supplemented with 50 μM 2-mercaptoethanol and 10% fetal bovine serum. Mice at the age of 6 weeks were grouped as the treatment, negative control and positive control groups at 7 to 8 mice per group. All mice are intravenously inoculated with the P388 cells at one million per mouse one day before the treatments initiated. Compounds of this invention are dissolved in dimethyl sulfoxide (DMSO) and then diluted in 0.5% carboxymethyl cellulose with the final concentration of DMSO less than 0.5%. Different treatment groups are orally given (P.O.), respectively, with compounds of different doses for a pharmacological dose-response relationship. Mice of the negative control group are treated with the dosing vehicle, 0.5% carboxymethyl cellulose. Doxorubicin of the maximal tolerated dose, 10 mg/kg, is given intravenously as an experimental positive control. The cancer cell-inoculated animals are monitored twice daily. The time on which 50% of the P388-inoculated mice is still surviving is defined as the medium survival time and is used to calculate the percentage (normalized to the medium survival time of the control group) of increased in life span after treatment, which is then served as the index of treatment response.
SMILES,IC50 [1] [nM],IC50 [2] [nM],IC50 [3] [nM],IC50 [4] [nM],increase of life span ([5]; 25 mg/kg) [%],increase of life span ([5]; 50 mg/kg) [%],increase of life span ([5]; 100 mg/kg) [%],increase of life span ([5]; 200 mg/kg) [%],activity in the increase of life span (dose-response) [5]
Cc1cc(NC(=O)C(=O)c2cn(Cc3ccc(C#N)cc3)c3ccccc23)sn1 [Compound 25],543,1790,689,398,14 ± 1,27 ± 3,20 ± 8,46 ± 24,dose-dependent activity
Cc1cc(Cn2cc(C(=O)C(=O)Nc3cc(C)ns3)c3ccccc32)on1 [Compound 56],41,93,628,368,26 ± 27,57 ± 20,63 ± 17,100 ± 21,dose-dependent activity
